# Patent publication US20190374533A1, “COMPOUNDS AND METHODS FOR INHIBITING NHE-MEDIATED ANTIPORT IN THE TREATMENT OF DISORDERS ASSOCIATED WITH FLUID RETENTION OR SALT OVERLOAD AND GASTROINTESTINAL TRACT DISORDERS” (Ardelyx, Inc., priority 2008, published 2019)
# Molecular target: T1, rat NHE-3 (Rattus norvegicus, UniProt P26433)
# T1 construct: expressed in transfected cells; host or cells: Opossum kidney (OK) cells (ATCC), electroporated
# Assay: Cell-based assay of NHE-3 activity (Pharmacological Test Example 1)
# Conditions: OK cells expressing rat NHE-3, 0-30 uM test compound, 5 uM EIPA
# Protocol: Rat NHE-3-mediated Na^+-dependent H^+ antiport was measured using a modification of the pH sensitive dye method originally reported by Tsien (Proc. Natl. Acad. Sci. USA. (1984) 81(23): 7436-7440). Opossum kidney (OK) cells were obtained from the ATCC and propagated per their instructions. The rat NHE-3 gene was introduced into OK cells via electroporation, seeded into 96 well plates and grown overnight. Medium was aspirated from the wells, cells were washed twice with NaCl-HEPES buffer (100 mM NaCl, 50 mM HEPES, 10 mM glucose, 5 mM KCl, 2 mM CaCl2, 1 mM MgCl2, pH 7.4), then incubated for 30 min at room temperature with NH4Cl-HEPES buffer (20 mM NH4Cl, 80 mM NaCl, 50 mM HEPES, 5 mM KCl, 2 mM CaCl2), 1 mM MgCl2, pH 7.4) containing 5 uM BCECF-AM (Invitrogen). Cells were washed twice with Ammonium free, Nat-free HEPES (100 mM choline, 50 mM HEPES, 10 mM glucose, 5 mM KCl, 2 mM CaCl2), 1 mM MgCl2, pH 7.4) and incubated in the same buffer for 10 minutes at room temperature to lower intracellular pH. […] Initial rates were plotted as the average 3-6 replicates, and pIC50 values were estimated using GraphPad Prism.
# T1 sequence (P26433 29-831): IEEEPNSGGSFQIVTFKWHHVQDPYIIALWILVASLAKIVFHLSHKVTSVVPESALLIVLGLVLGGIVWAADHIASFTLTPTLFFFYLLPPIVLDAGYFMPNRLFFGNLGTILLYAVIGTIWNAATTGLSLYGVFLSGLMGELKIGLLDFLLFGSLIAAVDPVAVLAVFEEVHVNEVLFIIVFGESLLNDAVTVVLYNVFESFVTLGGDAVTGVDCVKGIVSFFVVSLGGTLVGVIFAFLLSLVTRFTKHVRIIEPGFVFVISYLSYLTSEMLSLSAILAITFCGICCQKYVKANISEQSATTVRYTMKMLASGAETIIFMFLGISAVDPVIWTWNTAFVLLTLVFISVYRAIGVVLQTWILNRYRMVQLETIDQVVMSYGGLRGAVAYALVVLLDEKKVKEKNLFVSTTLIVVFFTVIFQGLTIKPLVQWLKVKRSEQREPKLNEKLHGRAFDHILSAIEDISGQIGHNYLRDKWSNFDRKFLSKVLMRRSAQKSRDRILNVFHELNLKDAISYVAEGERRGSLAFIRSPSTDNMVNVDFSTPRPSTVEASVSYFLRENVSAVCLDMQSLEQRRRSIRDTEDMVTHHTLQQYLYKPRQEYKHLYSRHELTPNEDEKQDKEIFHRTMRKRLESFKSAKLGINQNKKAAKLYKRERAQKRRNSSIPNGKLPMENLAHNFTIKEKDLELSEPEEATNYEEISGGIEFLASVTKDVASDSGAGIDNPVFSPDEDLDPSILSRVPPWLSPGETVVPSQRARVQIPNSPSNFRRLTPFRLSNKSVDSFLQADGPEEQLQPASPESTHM
Compound,rat NHE-3 Average pIC50,IC50 (read-out: rat NHE-3 Average pIC50 (converted)) [µM]
"Nc1cccc(C2CN(CCOCCOCCOCCN3Cc4c(Cl)cc(Cl)cc4C(c4cccc(N)c4)C3)Cc3c(Cl)cc(Cl)cc32)c1 (centres unmarked) [Example 171, 3,3′-(2,2′-(2,2′-(2,2′-oxybis(ethane-2,1-diyl)bis(oxy))bis(ethane-2,1-diyl))bis(6,8-dichloro-1,2,3,4-tetrahydroisoquinoline-4,2-diyl))dianiline]",<5.0,–
"CN1Cc2c(Cl)cc(Cl)cc2C(c2ccc(S(=O)(=O)NCCOCCOCCNC(=O)C(=O)NCCOCCOCCNS(=O)(=O)c3ccc(C4CN(C)Cc5c(Cl)cc(Cl)cc54)cc3)cc2)C1 (centres unmarked) [Example 175, N1,N2-bis(2-(2-(2-(4-(6,8-dichloro-2-methyl-1,2,3,4-tetrahydroisoquinolin-4-yl)phenylsulfonamido)ethoxy)ethoxy)ethyl)oxalamide]",<5.0,–
"CN1Cc2c(Cl)cc(Cl)cc2C(c2cccc(S(=O)(=O)NCCOCCOCCNC(=O)COCC(=O)NCCOCCOCCNS(=O)(=O)c3cccc(C4CN(C)Cc5c(Cl)cc(Cl)cc54)c3)c2)C1 (centres unmarked) [Example 195, 2,2′-oxybis(N-(2-(2-(2-(3-(6,8-dichloro-2-methyl-1,2,3,4-tetrahydroisoquinolin-4-yl)phenylsulfonamido)ethoxy)ethoxy)ethyl)acetamide)]",>7,–
"CN1Cc2c(Cl)cc(Cl)cc2C(c2cccc(S(=O)(=O)NCCOCCOCCNC(=O)C(C)(C)C(=O)NCCOCCOCCNS(=O)(=O)c3cccc(C4CN(C)Cc5c(Cl)cc(Cl)cc54)c3)c2)C1 (centres unmarked) [Example 196, N1,N3-bis(2-(2-(2-(3-(6,8-dichloro-2-methyl-1,2,3,4-tetrahydroisoquinolin-4-yl)phenylsulfonamido)ethoxy)ethoxy)ethyl)-2,2-dimethylmalonamide]",5 to 6,–
"CN1Cc2c(Cl)cc(Cl)cc2C(c2cccc(S(=O)(=O)NCCOCCOCCNCc3ccc(CNCCOCCOCCNS(=O)(=O)c4cccc(C5CN(C)Cc6c(Cl)cc(Cl)cc65)c4)cc3)c2)C1 (centres unmarked) [Example 206, N,N′-(2,2′-(2,2′-(2,2′-(1,4-phenylenebis(methylene))bis(azanediyl)bis(ethane-2,1-diyl))bis(oxy)bis(ethane-2,1-diyl))bis(oxy)bis(ethane-2,1-diyl))bis(3-(6,8-dichloro-2-methyl-1,2,3,4-tetrahydroisoquinolin-4-yl)benzenesulfonamide)]",>7,–
"CN1Cc2c(Cl)cc(Cl)cc2C(c2ccc(S(=O)(=O)NCCOCCOCCNC(=O)[C@H](O)[C@@H](O)C(=O)NCCOCCOCCNS(=O)(=O)c3ccc(C4CN(C)Cc5c(Cl)cc(Cl)cc54)cc3)cc2)C1 (stereo partly drawn) [Example 207, (2R,3R)—N1,N4-bis(2-(2-(2-(4-(6,8-dichloro-2-methyl-1,2,3,4-tetrahydroisoquinolin-4-yl)phenylsulfonamido)ethoxy)ethoxy)ethyl)-2,3-dihydroxysuccinamide]",6 to 7,–
"CN1Cc2c(Cl)cc(Cl)cc2C(c2cccc(S(=O)(=O)NCCOCCOCCOCCNC(=O)Nc3ccc(NC(=O)NCCOCCOCCOCCNS(=O)(=O)c4cccc(C5CN(C)Cc6c(Cl)cc(Cl)cc65)c4)cc3)c2)C1 (centres unmarked) [Example 209, N,N′-(1,1′-(1,4-phenylenebis(azanediyl))bis(1-oxo-5,8,11-trioxa-2-azatridecane-13,1-diyl))bis(3-(6,8-dichloro-2-methyl-1,2,3,4-tetrahydroisoquinolin-4-yl)benzenesulfonamide)]",–,1 to 10
"C/C(=C\c1cc(F)c(Oc2ccc(S(=O)(=O)NCCOCCOCCOCCOCCOCCOCCNC(=O)[C@H](O)[C@@H](O)C(=O)NCCOCCOCCOCCOCCOCCOCCNS(=O)(=O)c3ccc(Oc4c(F)cc(/C=C(\C)C(=O)N=C(N)N)cc4F)cc3)cc2)c(F)c1)C(=O)N=C(N)N [Example 210, (2R,3R)—N1,N4-bis(20-(4-(4-((E)-3-(diaminomethyleneamino)-2-methyl-3-oxoprop-1-enyl)-2,6-difluorophenoxy)phenylsulfonamido)-3,6,9,12,15,18-hexaoxaicosyl)-2,3-dihydroxysuccinamide]",6 to 7,–
